Patent publication US10604512B2, “3-(1H-indol-2-yl)-1H-indazoles and therapeutic uses thereof” (Samumed, LLC, priority 2015, dated 2020)

Columns and labels:
[1] = test system: Primary human fibroblasts derived from IPF patients (LL29 cells) treated with TGF-β1; assay: Inhibition of the fibrotic process: αSMA staining in TGF-β1-treated primary human fibroblasts from IPF patients (LL29 cells); format: cell-based; settings: Fibroblast, 96 h; for EC50: % αSMA-positive LL29 cells, TGF-β1 20 ng/mL, 4 days; for inhibition at 10 µM: given where EC50 >10 μM, αSMA, LL29 cells, TGF-β1, 4 days, read-out: percent inhibition at 10 μM
How it was run: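 LL29 IPF-patient fibroblasts in 1% FBS stimulated with TGF-β1 (20 ng/mL) and compound (10 μM–1.87 nM, 0.1% DMSO) for 4 days at 37 °C. SYTOX-positive cells excluded; % αSMA-positive cells imaged, normalized to TGF-β1/DMSO wells; EC50 by nonlinear regression, else % inhibition at 10 μM.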

SW480 colon cancer cells = assay: Cell viability assay (CellTiter-Blue) in SW480 colon cancer cells; format: cell-based; settings: Homo sapiens, 96 h, four days; for EC50: CellTiter-Blue; for inhibition at 10 µM: given where EC50 >10 μM, read-out: percent inhibition at 10 μM
How it was run: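 Four-day viability readout in SW480 cells: compound at 0.0045–10 μM (1:3 series), DMSO controls in eight replicates, CellTiter-Blue fluorescence after ~3 h. Values are regression-derived EC50s, or percent inhibition at 10 μM when EC50 exceeds 10 μM.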

Q: How did the EC50 [1] turn out when `O=C(Nc1cncc(-c2ccc3[nH]nc(-c4cc5ncccc5[nH]4)c3c2)c1)c1ccccc1` [Compound 515, N-(5-(3-(1H-Pyrrolo[3,2-b]pyridin-2-yl)-1H-indazol-5-yl)pyridin-3-yl) benzamide] was run?
A: > 10 µM

Q: And the inhibition at 10 µM [1]?
A: 0%

Q: What about the EC50 (SW480 colon cancer cells) of the same molecule?
A: 1.09 µM

Q: For `c1cnc2cc(-c3n[nH]c4ccc(-c5cncc(CN6CCCCC6)c5)cc34)[nH]c2c1` [Compound 519, 5-(5-(Piperidin-1-ylmethyl)pyridin-3-yl)-3-(1H-pyrrolo[3,2-b]pyridin-2-yl)-1H-indazole], which EC50 [1] is on record?
A: > 10 µM

Q: And the inhibition at 10 µM [1]?
A: 25.4%

Q: What about the EC50 (SW480 colon cancer cells) of the same molecule?
A: 0.106 µM

Q: Which results are given for `O=C(Nc1cncc(-c2ccc3[nH]nc(-c4cc5ncccc5[nH]4)c3c2)c1)C1CCC1` [Compound 525, N-(5-(3-(1H-Pyrrolo[3,2-b]pyridin-2-yl)-1H-indazol-5-yl)pyridin-3-yl) cyclobutanecarboxamide]?
A: EC50 [1]: > 10 µM; inhibition at 10 µM [1]: 29.4%; EC50 (SW480 colon cancer cells): 0.547 µM

Q: How did the EC50 [1] turn out when `Fc1cccc(-c2cccc3[nH]c(-c4n[nH]c5ccc(C6CCNCC6)cc45)cc23)c1` [Compound 533, 3-(4-(3-Fluorophenyl)-1H-indol-2-yl)-5-(piperidin-4-yl)-1H-indazole] was run?
A: > 10 µM

Q: What about the inhibition at 10 µM [1] of the same molecule?
A: 0%

Q: What about the EC50 (SW480 colon cancer cells) of the same molecule?
A: 3.84 µM

Q: Which results are given for `Fc1ccc(-c2cccc3[nH]c(-c4n[nH]c5ccc(C6=CCNCC6)cc45)cc23)cc1` [Compound 550, 3-(4-(4-Fluorophenyl)-1H-indol-2-yl)-5-(1,2,3,6-tetrahydropyridin-4-yl)-1H-indazole]?
A: EC50 [1]: > 10 µM; inhibition at 10 µM [1]: 41.7%; EC50 (SW480 colon cancer cells): 3.9 µM

Q: Which results are given for `Cc1ncc(-c2ccc3[nH]nc(-c4cc5c(-c6ccncc6)cccc5[nH]4)c3c2)n1C` [Compound 601, 5-(1,2-Dimethyl-1H-imidazol-5-yl)-3-(4-(pyridin-4-yl)-1H-indol-2-yl)-1H-indazole]?
A: EC50 [1]: 4.19 µM; EC50 (SW480 colon cancer cells): 5.96 µM

Q: `c1cc(N2CCCCC2)c2cc(-c3n[nH]c4ccc(-c5cncc(OC6CCCCC6)c5)cc34)[nH]c2c1` [Compound 635, 5-(5-(Cyclohexyloxy)pyridin-3-yl)-3-(4-(piperidin-1-yl)-1H-indol-2-yl)-1H-indazole] was tested. Which EC50 [1] did it give?
A: 2.41 µM

Q: What about the inhibition at 10 µM (SW480 colon cancer cells) of the same molecule?
A: 45.7%

Q: And the EC50 (SW480 colon cancer cells)?
A: > 10 µM

Q: Which results are given for `CN1CCN(c2cccc3[nH]c(-c4n[nH]c5ccc(-c6cncc(NC(=O)CC7CCNCC7)c6)cc45)cc23)CC1` [Compound 669, N-(5-(3-(4-(4-Methylpiperazin-1-yl)-1H-indol-2-yl)-1H-indazol-5-yl)pyridin-3-yl)-2-(piperidin-4-yl)acetamide]?
A: EC50 [1]: > 10 µM; inhibition at 10 µM [1]: 17.7%; inhibition at 10 µM (SW480 colon cancer cells): 12.2%; EC50 (SW480 colon cancer cells): > 10 µM

Q: With `c1ccc2[nH]c(-c3n[nH]c4ccc(-c5cncc(OCCN6CCCC6)c5)cc34)cc2c1` [Compound 686, 3-(1H-Indol-2-yl)-5-(5-(2-(pyrrolidin-1-yl)ethoxy)pyridin-3-yl)-1H-indazole] as the molecule, how does the EC50 [1] read?
A: 7.39 µM

Q: What about the EC50 (SW480 colon cancer cells) of the same molecule?
A: 0.574 µM

Q: Which EC50 [1] does the source give for `c1cc(-c2ccoc2)c2cc(-c3n[nH]c4ccc(-c5cncc(OC6CCNCC6)c5)cc34)[nH]c2c1` [Compound 716, 3-(4-(Furan-3-yl)-1H-indol-2-yl)-5-(5-(piperidin-4-yloxy)pyridin-3-yl)-1H-indazole] here?
A: 9.99 µM

Q: What about the EC50 (SW480 colon cancer cells) of the same molecule?
A: 2.18 µM
